The values that follow come from US12600725B2 (Memorial Sloan-Kettering Cancer Center, priority 2013, dated 2026).

The structures appear in SMILES notation.

The target of one test is Hsp90α (Homo sapiens, UniProt P07900). Kind of test: biochemical. Particulars: FP competition, 6 nM Cy3B-GM, 10 nM protein, 4° C. for 24 h.
The next test has as its target Grp94 (Canis lupus familiaris, UniProt P41148). Particulars: read-out: Grp94; FP competition, 6 nM Cy3B-GM, 10 nM protein, 4° C. for 24 h.

Sequence of Grp94 (P41148 with tags, fused parts or gaps DELINS287-327GGGG): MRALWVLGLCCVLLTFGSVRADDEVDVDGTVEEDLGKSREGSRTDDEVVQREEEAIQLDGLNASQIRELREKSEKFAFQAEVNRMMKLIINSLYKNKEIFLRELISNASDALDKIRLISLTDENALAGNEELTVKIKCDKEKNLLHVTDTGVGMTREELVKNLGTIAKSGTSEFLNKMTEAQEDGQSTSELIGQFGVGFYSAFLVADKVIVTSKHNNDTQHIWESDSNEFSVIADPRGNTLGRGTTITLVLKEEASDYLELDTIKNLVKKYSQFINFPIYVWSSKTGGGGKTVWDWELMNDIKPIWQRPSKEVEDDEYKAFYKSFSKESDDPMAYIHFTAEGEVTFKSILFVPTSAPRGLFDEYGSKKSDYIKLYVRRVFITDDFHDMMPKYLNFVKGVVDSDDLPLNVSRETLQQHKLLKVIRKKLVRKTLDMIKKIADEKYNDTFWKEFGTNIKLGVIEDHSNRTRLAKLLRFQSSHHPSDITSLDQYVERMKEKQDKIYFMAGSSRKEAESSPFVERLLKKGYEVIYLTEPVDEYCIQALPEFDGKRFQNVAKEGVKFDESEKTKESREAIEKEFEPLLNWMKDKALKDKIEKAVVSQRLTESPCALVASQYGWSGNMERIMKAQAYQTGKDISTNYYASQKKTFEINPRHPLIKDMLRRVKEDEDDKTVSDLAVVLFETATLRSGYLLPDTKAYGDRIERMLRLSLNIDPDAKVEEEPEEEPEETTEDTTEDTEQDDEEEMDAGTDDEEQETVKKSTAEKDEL

Turning to `Nc1ncn(CCCC(F)(F)F)c2nc(Sc3cc(Cl)cc(Cl)c3)nc1-2`, the results for the IC50 on Hsp90α and at Grp94 were more than 50 µM and more than 10 µM, respectively. Take `C#CCCCn1c(Sc2cc(C#N)cc(C#N)c2)nc2c(N)ncnc21` [HJP-III-26, 5-((6-Amino-9-(pent-4-yn-1-yl)-9H-purin-8-yl)thio)isophthalonitrile]: the IC50 on Hsp90α was 60.3 µM. Take `C#CCCCn1c(Sc2ccc(C#N)c(C(F)(F)F)c2)nc2c(N)ncnc21` [HJP-III-29, 4-((6-Amino-9-(pent-4-yn-1-yl)-9H-purin-8-yl)thio)-2-(trifluoromethyl)benzonitrile]: the IC50 on Hsp90α turned out to be 4.51 µM; at Grp94, 2.41 µM. The matching figures for `C#CCCCn1c(Sc2ccc(C#N)c(Br)c2)nc2c(N)ncnc21` [HJP-III-32, 4-((6-Amino-9-(pent-4-yn-1-yl)-9H-purin-8-yl)thio)-2-bromobenzonitrile]: 14.3 µM and 4.28 µM. The matching figures for `C#CCCCn1c(Sc2ccc(C#N)c(Cl)c2)nc2c(N)ncnc21` [HJP-III-33, 4-((6-Amino-9-(pent-4-yn-1-yl)-9H-purin-8-yl)thio)-2-chlorobenzonitrile]: 7.6 µM and 3.45 µM. Regarding `C#CCCCn1c(Cc2c(C)cc(C)cc2C)nc2c(N)ncnc21` [HJP-V-36, 9-(Pent-4-yn-1-yl)-8-(2,4,6-trimethylbenzyl)-9H-purin-6-amine], the IC50 at Hsp90α is more than 10 µM; on Grp94, more than 5 µM. Taken in the same sequence, the figures for `C#CCCCn1c(Cc2ccc(Cl)cc2Cl)nc2c(N)ncnc21` [HJP-V-37, 8-(2,4-Dichlorobenzyl)-9-(pent-4-yn-1-yl)-9H-purin-6-amine] were more than 10 µM and 0.7 µM. Taken in the same sequence, the figures for `C#CCCCn1c(C(=O)c2ccc(Cl)cc2Cl)nc2c(N)ncnc21` [HJP-V-37T, (6-Amino-9-(pent-4-yn-1-yl)-9H-purin-8-yl)(2,4-dichlorophenyl)methanone] were more than 25 µM and 0.13 to 0.17 µM. Taken in the same sequence, the figures for `C#CCCCn1c(Cc2c(Cl)cccc2Cl)nc2c(N)ncnc21` [HJP-V-38, 8-(2,6-Dichlorobenzyl)-9-(pent-4-yn-1-yl)-9H-purin-6-amine] were 14.4 µM and 13.8 µM.

For `C#CCCCn1c(Cc2cc(Cl)cc(Cl)c2)nc2c(N)ncnc21` [HJP-V-39, 8-(3,5-Dichlorobenzyl)-9-(pent-4-yn-1-yl)-9H-purin-6-amine], the IC50 at Hsp90α was more than 10 µM; at Grp94, 0.5 µM. At Hsp90α, `C#CCCCn1c(C(=O)c2cc(Cl)cc(Cl)c2)nc2c(N)ncnc21` [HJP-V-39T, (6-Amino-9-(pent-4-yn-1-yl)-9H-purin-8-yl)(3,5-dichlorophenyl)methanone] displayed an IC50 of more than 10 µM.

For `C#CCCCn1c(Oc2ccc(Cl)cc2Cl)nc2c(N)ncnc21` [HJP-V-45, 8-(2,4-Dichlorophenoxy)-9-(pent-4-yn-1-yl)-9H-purin-6-amine], the IC50 at Hsp90α was more than 10 µM; on Grp94, 0.5 µM. `C#CCCCn1c(Cc2cc(Cl)ccc2Cl)nc2c(N)ncnc21` [HJP-V-54, 8-(2,5-Dichlorobenzyl)-9-(pent-4-yn-1-yl)-9H-purin-6-amine]: the values for the IC50 on Hsp90α and on Grp94 were more than 10 µM and 0.75 µM, respectively.

Take `C#CCCCn1c(Cc2cccc(Cl)c2Cl)nc2c(N)ncnc21` [HJP-V-55, 8-(2,3-Dichlorobenzyl)-9-(pent-4-yn-1-yl)-9H-purin-6-amine]: the IC50 at Hsp90α was more than 10 µM.

Turning to `C#CCCCn1c([S+]([O-])c2ccc(Cl)cc2Cl)nc2c(N)ncnc21` (stereo not shown) [HJP-V-62M, 8-((2,4-Dichlorophenyl)sulfinyl)-9-(pent-4-yn-1-yl)-9H-purin-6-amine], the IC50 was 24.1 µM on Hsp90α and 5.4 µM at Grp94. Taken in the same sequence, the figures for `C#CCCCn1c(S(=O)(=O)c2ccc(Cl)cc2Cl)nc2c(N)ncnc21` [HJP-V-62T, 8-((2,4-Dichlorophenyl)sulfonyl)-9-(pent-4-yn-1-yl)-9H-purin-6-amine] were more than 25 µM and 4.7 µM. Taken in the same sequence, the figures for `CC(O)CNCCn1c(Sc2ccc(Cl)cc2Cl)nc2c(N)ncnc21` (stereo not shown) [HJP-V-82, 1-((2-(6-Amino-8-((2,4-dichlorophenyl)thio)-9H-purin-9-yl)ethyl)amino)propan-2-ol] were 31.3 µM and 0.23 µM. Turning to `CC(CO)NCCn1c(Sc2ccc(Cl)cc2Cl)nc2c(N)ncnc21` (stereo not shown) [HJP-V-86, 2-((2-(6-Amino-8-((2,4-dichlorophenyl)thio)-9H-purin-9-yl)ethyl)amino)propan-1-ol], the IC50 on Hsp90α was 7.6 µM; on Grp94, 0.21 µM.

Turning to `Nc1ncnc2c1nc(Sc1ccc(Cl)cc1Cl)n2CCc1ccccn1` [HJP-V-93, 8-((2,4-Dichlorophenyl)thio)-9-(2-(pyridin-2-yl)ethyl)-9H-purin-6-amine], the IC50 is more than 50 µM on Hsp90α and 1.9 µM on Grp94. Taken in the same sequence, the figures for `Nc1ncnc2c1nc(Sc1ccc(Cl)cc1Cl)n2CCc1ccccc1F` [HJP-V-96, 8-((2,4-Dichlorophenyl)thio)-9-(2-fluorophenethyl)-9H-purin-6-amine] were more than 50 µM and 1.9 µM.

With `Nc1ncnc2c1nc(Sc1ccc(Cl)cc1Cl)n2CCc1ccccc1Cl` [HJP-V-97, 9-(2-Chlorophenethyl)-8-((2,4-dichlorophenyl)thio)-9H-purin-6-amine], the IC50 was found to be 186 µM at Hsp90α and 2.2 µM at Grp94.

For `Nc1ncnc2c1nc(Sc1ccc(Cl)cc1Cl)n2CCc1ccccc1C(F)(F)F` [HJP-V-98, 8-((2,4-Dichlorophenyl)thio)-9-(2-(trifluoromethyl)phenethyl)-9H-purin-6-amine], the results for the IC50 on Hsp90α and at Grp94 were more than 50 µM and 0.71 µM, respectively.

Take `CC(C)NCCCn1c(Sc2cc(Cl)c(Cl)cc2Cl)nc2c(N)ncnc21` [HJP-V-103-N9, 9-(3-(Isopropylamino)propyl)-8-((2,4,5-trichlorophenyl)thio)-9H-purin-6-amine]: the IC50 is 5.8 µM at Hsp90α and 0.35 µM on Grp94.

Take `C[C@@H](O)CNCCn1c(Sc2ccc(Cl)cc2Cl)nc2c(N)ncnc21` [HJP-V-104, 1(R)-1-((2-(6-Amino-8-((2,4-dichlorophenyl)thio)-9H-purin-9-yl)ethyl)amino)propan-2-ol]: the values for the IC50 on Hsp90α and at Grp94 were 55.8 µM and 1.5 µM, respectively. Taken in the same sequence, the figures for `C[C@H](O)CNCCn1c(Sc2ccc(Cl)cc2Cl)nc2c(N)ncnc21` [HJP-V-105, 1(S)-1-((2-(6-Amino-8-((2,4-dichlorophenyl)thio)-9H-purin-9-yl)ethyl)amino)propan-2-ol] were more than 50 µM and 0.35 µM. The matching figures for `C#CCN(CCO)CCn1c(Sc2ccc(Cl)cc2Cl)nc2c(N)ncnc21` [HJP-V-110, 2-((2-(6-Amino-8-((2,4-dichlorophenyl)thio)-9H-purin-9-yl)ethyl)(prop-2-yn-1-yl)amino)ethanol]: more than 50 µM and 0.6 µM. Taken in the same sequence, the figures for `CCCC(C)n1c(Sc2ccc(Cl)cc2Cl)nc2c(N)ncnc21` (stereo not shown) [HJP-V-114, 8-((2,4-Dichlorophenyl)thio)-9-(pentan-2-yl)-9H-purin-6-amine] were more than 50 µM and 2.48 µM. As for `Nc1ncnc2c1nc(Sc1ccc(Cl)cc1Cl)n2CCc1cccnc1` [HJP-V-116, 8-((2,4-Dichlorophenyl)thio)-9-(2-(pyridin-3-yl)ethyl)-9H-purin-6-amine], the IC50 at Hsp90α was more than 50 µM; on Grp94 it was 0.12 to 0.3 µM. On to `C#CCC(CC)n1c(Sc2ccc(Cl)cc2Cl)nc2c(N)ncnc21` (stereo not shown) [HJP-V-117, 8-((2,4-dichlorophenyl)thio)-9-(hex-5-yn-3-yl)-9H-purin-6-amine], for which the IC50 at Grp94 is 0.92 µM. In the case of `Nc1ncnc2c1nc(Sc1ccc(Cl)cc1Cl)n2CCc1ccncc1` [HJP-V-118, 8-((2,4-Dichlorophenyl)thio)-9-(2-(pyridin-4-yl)ethyl)-9H-purin-6-amine], the figures for the IC50 at Hsp90α and on Grp94 were more than 50 µM and 1.03 µM, respectively.

In the case of `CC(O)CNCCCn1c(Sc2cc(Cl)cc(Cl)c2)nc2c(N)ncnc21` (stereo not shown) [HJP-V-130, 1-((3-(6-amino-8-((3,5-dichlorophenyl)thio)-9H-purin-9-yl)propyl)amino)propan-2-ol], the IC50 came out at 51.7 µM at Hsp90α and 0.37 µM on Grp94.

With `C#CCN(CCO)CCCn1c(Sc2cc(Cl)cc(Cl)c2)nc2c(N)ncnc21` [HJP-V-132, 2-((3-(6-amino-8-((3,5-dichlorophenyl)thio)-9H-purin-9-yl)propyl)(prop-2-yn-1-yl)amino)ethanol], the IC50 on Hsp90α was determined as 26.6 µM; on Grp94, 0.81 µM. For the molecule `CC(C)NCCCn1c(Sc2cc(Cl)cc(Cl)c2I)nc2c(N)ncnc21` [HJP-V-145], at Grp94, the IC50 came to 0.68 µM. `CC(C)NCCCn1c(Sc2ccc(F)cc2Cl)nc2c(N)ncnc21` [HJP-VI-25, 8-((2-chloro-4-fluorophenyl)thio)-9-(3-(isopropylamino)propyl)-9H-purin-6-amine] showed an IC50 on Hsp90α of more than 50 µM. The same measure, in the same setting: for `CC(C)NCCCn1c(Sc2ccc(Cl)cc2N)nc2c(N)ncnc21` [HJP-VI-34, 8-((2-amino-4-chlorophenyl)thio)-9-(3-(isopropylamino)propyl)-9H-purin-6-amine] the value was more than 50 µM; for `CC#Cc1cc(Cl)cc(Sc2nc3c(N)ncnc3n2CCCNC(C)C)c1` [HJP-VI-50, 8-((3-chloro-5-(prop-1-yn-1-yl)phenyl)thio)-9-(3-(isopropylamino)propyl)-9H-purin-6-amine], more than 50 µM. In the case of `CC(C)NCCCn1c(Sc2cc(Cl)cc(Cl)c2)nc2c(N)nc(F)nc21` [HJP-VI-69, 8-((3,5-dichlorophenyl)thio)-2-fluoro-9-(3-(isopropylamino)propyl)-9H-purin-6-amine], the IC50 at Grp94 is 0.135 µM. Same read-out and setting: to `C/C=C(\C)c1cc(Cl)cc(Sc2nc3c(N)ncnc3n2CCCNC(C)C)c1` [HJP-VI-79, (E)-8-((3-(but-2-en-2-yl)-5-chlorophenyl)thio)-9-(3-(isopropylamino)propyl)-9H-purin-6-amine] belongs 0.124 µM.

For `C#CCCCn1cnc(N)c2nc(Sc3cc(Cl)cc(Cl)c3)nc1-2` [PU-H41], the IC50 at Hsp90α was more than 100 µM.
